Assay results: PMC3234597, “Two Panels of Steroid Receptor Luciferase Reporter Cell Lines for Compound Profiling” (Combinatorial Chemistry & High Throughput Screening, 2011)
Where two headings read alike, the source gives them in different places.

Experiments:
Assay type in all cases: cell-based
human ERα (full-length) = target: T1, human ERα (full-length) (Homo sapiens, UniProt P03372, G400V); assay: U2OS-ERα/3xERE luciferase reporter cell line (full-length receptor)
T1 sequence (P03372 1-595 G400V): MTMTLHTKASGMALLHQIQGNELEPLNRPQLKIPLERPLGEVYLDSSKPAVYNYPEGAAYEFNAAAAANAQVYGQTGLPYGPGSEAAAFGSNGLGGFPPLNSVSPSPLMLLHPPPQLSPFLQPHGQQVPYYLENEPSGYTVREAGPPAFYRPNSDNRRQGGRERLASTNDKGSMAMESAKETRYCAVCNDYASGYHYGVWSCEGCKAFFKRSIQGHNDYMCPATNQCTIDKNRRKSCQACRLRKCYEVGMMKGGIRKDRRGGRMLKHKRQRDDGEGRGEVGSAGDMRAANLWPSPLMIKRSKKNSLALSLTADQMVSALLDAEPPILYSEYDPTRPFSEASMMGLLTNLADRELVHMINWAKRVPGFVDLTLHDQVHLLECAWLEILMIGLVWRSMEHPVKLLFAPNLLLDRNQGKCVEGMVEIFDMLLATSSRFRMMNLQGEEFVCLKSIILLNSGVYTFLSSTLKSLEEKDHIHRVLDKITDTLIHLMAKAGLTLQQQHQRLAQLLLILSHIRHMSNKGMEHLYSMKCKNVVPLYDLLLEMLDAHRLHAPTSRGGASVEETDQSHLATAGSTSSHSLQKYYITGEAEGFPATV

[1] = target: T2, ERα^wt-LBD fused to Gal4-DBD (Homo sapiens, UniProt P03372); assay: U2OS-ERα^wt-LBD/9xGal4UAS luciferase reporter cell line
T2 construct: ERα-LBD (amino acids 303-595) based on GenBank NM_000125; expressed in transfected cells; host or cells: U2OS
T2 sequence (P03372 303-595): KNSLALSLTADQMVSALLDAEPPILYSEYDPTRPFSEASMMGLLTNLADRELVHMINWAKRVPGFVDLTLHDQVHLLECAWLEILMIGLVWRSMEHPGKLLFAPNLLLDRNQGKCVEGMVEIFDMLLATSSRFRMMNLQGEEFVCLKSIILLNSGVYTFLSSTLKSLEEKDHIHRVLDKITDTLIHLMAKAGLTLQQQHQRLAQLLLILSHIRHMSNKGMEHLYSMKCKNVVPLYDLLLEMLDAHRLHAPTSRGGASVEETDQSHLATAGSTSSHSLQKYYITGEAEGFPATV

[2] = target: T3, ERα^G420C-LBD fused to Gal4-DBD (Homo sapiens, UniProt P03372, G420C); assay: U2OS-ERα^G420C-LBD/9xGal4UAS luciferase reporter cell line
T3 construct: expressed in transfected cells; host or cells: U2OS
T3 sequence (P03372 311-547 G420C limits assumed): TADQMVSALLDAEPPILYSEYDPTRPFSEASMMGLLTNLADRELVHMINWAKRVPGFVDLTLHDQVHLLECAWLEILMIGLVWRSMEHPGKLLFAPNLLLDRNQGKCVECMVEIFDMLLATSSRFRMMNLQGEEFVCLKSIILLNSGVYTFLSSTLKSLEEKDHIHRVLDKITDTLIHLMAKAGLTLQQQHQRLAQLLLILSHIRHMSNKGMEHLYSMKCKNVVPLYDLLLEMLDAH

human ERβ (full-length) = target: T4, human ERβ (full-length) (Homo sapiens, UniProt Q92731); assay: U2OS-ERβ/3xERE luciferase reporter cell line (full-length receptor); conditions: read-out: Log EC50 (converted)
T4 construct: expression vectors encoding full-length steroid receptors: pcDNA3-hERα and pcDNA3-ERβ; expressed in transfected cells; host or cells: U2OS

[3] = target: T5, ERβ-LBD fused to Gal4-DBD (Homo sapiens, UniProt Q92731); assay: U2OS-ERβ-LBD/9xGal4UAS luciferase reporter cell line; conditions: read-out: Log EC50 (converted)
T5 construct: region comprising ERβ-LBD and a piece of the hinge region; expressed in transfected cells; host or cells: U2OS

human MR (full-length) = target: T6, human MR (full-length) (Homo sapiens, UniProt P08235); assay: U2OS-MR/MMTV luciferase reporter cell line (full-length receptor); conditions: read-out: Log EC50 (converted)
T6 construct: expression vectors encoding full-length steroid receptors: pcDNA3-hAR, pcDNA3-hGR and pcDNA3-hMR; expressed in transfected cells; host or cells: U2OS
T6 sequence (P08235 1-984): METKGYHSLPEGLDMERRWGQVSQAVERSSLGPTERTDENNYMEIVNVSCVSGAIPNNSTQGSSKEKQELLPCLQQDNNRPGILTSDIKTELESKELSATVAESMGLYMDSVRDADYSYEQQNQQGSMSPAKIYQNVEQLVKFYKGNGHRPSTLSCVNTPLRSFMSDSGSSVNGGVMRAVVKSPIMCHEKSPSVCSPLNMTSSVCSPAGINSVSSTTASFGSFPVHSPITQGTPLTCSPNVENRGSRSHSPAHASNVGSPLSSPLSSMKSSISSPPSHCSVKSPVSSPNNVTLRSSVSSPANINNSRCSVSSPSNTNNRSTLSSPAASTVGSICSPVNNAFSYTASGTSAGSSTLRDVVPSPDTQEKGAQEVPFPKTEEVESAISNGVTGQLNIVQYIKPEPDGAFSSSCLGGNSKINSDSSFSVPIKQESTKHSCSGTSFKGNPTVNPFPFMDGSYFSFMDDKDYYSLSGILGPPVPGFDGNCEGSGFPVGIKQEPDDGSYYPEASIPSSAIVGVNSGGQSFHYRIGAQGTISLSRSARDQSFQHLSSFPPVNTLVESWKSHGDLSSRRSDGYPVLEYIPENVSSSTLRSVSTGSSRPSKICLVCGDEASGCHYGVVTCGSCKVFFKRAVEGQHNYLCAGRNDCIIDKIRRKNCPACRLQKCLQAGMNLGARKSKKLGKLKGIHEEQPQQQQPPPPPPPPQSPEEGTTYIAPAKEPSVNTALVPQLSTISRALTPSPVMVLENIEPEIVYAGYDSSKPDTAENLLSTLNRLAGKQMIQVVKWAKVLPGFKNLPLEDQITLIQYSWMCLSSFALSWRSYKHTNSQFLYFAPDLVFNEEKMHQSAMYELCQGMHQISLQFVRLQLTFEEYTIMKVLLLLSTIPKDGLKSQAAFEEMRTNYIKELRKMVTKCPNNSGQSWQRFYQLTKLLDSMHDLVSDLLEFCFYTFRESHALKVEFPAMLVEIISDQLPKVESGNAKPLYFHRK

MR-LBD fused to Gal4-DBD = target: T7, MR-LBD fused to Gal4-DBD (Homo sapiens, UniProt P08235); assay: U2OS-MR-LBD/9xGal4UAS luciferase reporter cell line; conditions: read-out: Log EC50 (converted)
T7 construct: MR-LBD was cloned by RT-PCR from total RNA isolated from HEK293 cells; expressed in transfected cells; host or cells: U2OS
T7 sequence (P08235 726-964 limits assumed): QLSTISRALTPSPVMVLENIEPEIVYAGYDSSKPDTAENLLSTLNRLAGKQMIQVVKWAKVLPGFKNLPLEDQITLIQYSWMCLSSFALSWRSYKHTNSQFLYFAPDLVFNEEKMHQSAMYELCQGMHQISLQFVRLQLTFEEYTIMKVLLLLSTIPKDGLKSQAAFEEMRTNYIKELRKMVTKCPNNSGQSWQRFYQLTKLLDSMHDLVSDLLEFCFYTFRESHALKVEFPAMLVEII

PR-LBD fused to Gal4-DBD = target: T8, PR-LBD fused to Gal4-DBD (Homo sapiens, UniProt P06401); assay: U2OS-PR-LBD/9xGal4UAS luciferase reporter cell line
T8 construct: PR-LBD region was PCR amplified using the following primer combination; host or cells: U2OS
T8 sequence (P06401 679-913 limits assumed): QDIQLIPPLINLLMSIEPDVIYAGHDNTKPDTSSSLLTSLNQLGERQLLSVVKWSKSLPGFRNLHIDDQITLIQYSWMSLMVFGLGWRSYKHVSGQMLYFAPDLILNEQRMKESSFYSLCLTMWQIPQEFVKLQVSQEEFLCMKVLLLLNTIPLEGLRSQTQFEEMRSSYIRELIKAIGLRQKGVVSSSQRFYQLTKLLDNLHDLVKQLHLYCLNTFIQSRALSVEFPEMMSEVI

human GR (full-length) [4] = target: T9, human GR (full-length) (Homo sapiens, UniProt P04150); assay: U2OS-GR/3xGRE luciferase reporter cell line (full-length receptor)
T9 construct: expression vectors encoding full-length steroid receptors: pcDNA3-hAR and pcDNA3-hGR; host or cells: U2OS
T9 sequence (P04150 1-777): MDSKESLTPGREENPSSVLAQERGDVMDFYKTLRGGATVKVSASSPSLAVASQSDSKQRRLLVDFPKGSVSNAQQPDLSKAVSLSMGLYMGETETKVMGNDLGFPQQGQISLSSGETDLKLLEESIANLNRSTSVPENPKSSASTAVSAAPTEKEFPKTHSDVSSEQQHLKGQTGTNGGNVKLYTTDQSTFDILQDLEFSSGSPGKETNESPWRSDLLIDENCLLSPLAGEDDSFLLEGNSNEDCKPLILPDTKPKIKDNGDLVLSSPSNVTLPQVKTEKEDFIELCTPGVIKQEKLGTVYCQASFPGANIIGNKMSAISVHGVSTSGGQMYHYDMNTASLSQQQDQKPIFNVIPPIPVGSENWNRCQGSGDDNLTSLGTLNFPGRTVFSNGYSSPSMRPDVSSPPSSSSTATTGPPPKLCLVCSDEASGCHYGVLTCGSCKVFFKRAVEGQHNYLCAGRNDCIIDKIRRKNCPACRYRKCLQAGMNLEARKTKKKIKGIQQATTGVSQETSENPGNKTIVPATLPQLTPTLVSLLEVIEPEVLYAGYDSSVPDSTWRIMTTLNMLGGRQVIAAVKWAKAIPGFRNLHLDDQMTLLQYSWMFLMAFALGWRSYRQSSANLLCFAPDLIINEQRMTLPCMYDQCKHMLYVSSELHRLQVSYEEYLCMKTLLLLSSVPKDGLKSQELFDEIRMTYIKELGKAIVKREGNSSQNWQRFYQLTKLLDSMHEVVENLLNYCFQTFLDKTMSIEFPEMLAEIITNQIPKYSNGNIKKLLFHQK

human GR (full-length) [5] = target: T9, human GR (full-length); assay: U2OS-GR/MMTV luciferase reporter cell line (full-length receptor)
GR-LBD fused to Gal4-DBD = target: T10, GR-LBD fused to Gal4-DBD (Homo sapiens, UniProt P04150); assay: U2OS-GR-LBD/9xGal4UAS luciferase reporter cell line
T10 construct: expressed in transfected cells; host or cells: U2OS
T10 sequence (P04150 524-758 limits assumed): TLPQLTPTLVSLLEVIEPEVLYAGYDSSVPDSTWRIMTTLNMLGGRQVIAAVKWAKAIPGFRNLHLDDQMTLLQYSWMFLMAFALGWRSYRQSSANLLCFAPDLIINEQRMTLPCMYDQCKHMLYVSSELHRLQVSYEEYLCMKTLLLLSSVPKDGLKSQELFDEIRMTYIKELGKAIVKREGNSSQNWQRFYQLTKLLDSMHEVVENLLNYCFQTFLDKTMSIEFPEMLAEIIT

T5 sequence (Q92731 264-498 limits assumed): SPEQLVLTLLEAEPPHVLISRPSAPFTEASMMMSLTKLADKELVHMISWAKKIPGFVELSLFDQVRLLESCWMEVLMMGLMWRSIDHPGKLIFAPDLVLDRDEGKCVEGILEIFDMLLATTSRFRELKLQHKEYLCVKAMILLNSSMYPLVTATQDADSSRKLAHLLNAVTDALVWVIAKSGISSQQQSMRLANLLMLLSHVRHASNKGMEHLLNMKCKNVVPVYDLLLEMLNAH
T4 sequence (Q92731 whole entry): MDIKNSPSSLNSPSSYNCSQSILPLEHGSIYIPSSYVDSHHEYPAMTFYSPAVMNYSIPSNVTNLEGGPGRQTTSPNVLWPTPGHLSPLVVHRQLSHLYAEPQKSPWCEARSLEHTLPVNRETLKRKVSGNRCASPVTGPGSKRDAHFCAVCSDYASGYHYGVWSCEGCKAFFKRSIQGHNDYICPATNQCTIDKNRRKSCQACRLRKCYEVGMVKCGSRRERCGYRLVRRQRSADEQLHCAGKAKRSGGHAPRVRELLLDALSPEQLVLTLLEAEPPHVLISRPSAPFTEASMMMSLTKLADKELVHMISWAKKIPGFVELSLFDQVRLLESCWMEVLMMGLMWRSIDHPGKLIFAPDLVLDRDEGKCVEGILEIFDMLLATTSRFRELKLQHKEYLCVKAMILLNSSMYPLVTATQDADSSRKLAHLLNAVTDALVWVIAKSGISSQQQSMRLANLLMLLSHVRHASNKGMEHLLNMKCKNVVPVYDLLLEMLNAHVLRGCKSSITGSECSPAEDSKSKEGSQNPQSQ

CC(C)C(=O)Nc1ccc([N+](=O)[O-])c(C(F)(F)F)c1 [Flutamide, flutamide]
> 10 µM: EC50 (human ERα (full-length)) | EC50 [1] | EC50 [2] | EC50 (human ERβ (full-length)) | EC50 [3] | EC50 (human MR (full-length)) | EC50 (MR-LBD fused to Gal4-DBD) | IC50 (PR-LBD fused to Gal4-DBD; antagonist mode, PR-LBD/9xGal4UAS, log10 of molar IC50, mean ± SEM, read-out: Log IC50 (converted)) | EC50 (PR-LBD fused to Gal4-DBD; read-out: Log EC50 (converted))

CC(=O)S[C@@H]1CC2=CC(=O)CC[C@]2(C)[C@H]2CC[C@@]3(C)[C@@H](CC[C@@]34CCC(=O)O4)[C@H]12 [Spironolactone, spironolactone]
> 10 µM: EC50 (human ERα (full-length); Log EC50, agonist mode, ERα/3xERE, 20 h, value is log10 of molar EC50, mean ± SEM) | EC50 [1] | EC50 [2] | EC50 (human GR (full-length) [4]) | EC50 (human GR (full-length) [5]) | EC50 (GR-LBD fused to Gal4-DBD)
